According to US20240150705A1, “POLYPHENOL INFUSED PROBIOTICS AND METHODS FOR IMPROVED GUT SURVIVABILITY, PERSISTENCE AND COLONIZATION” (THE REGENTS OF THE UNIVERSITY OF CALIFORNIA, priority 2021, published 2024):
Entries after “also recorded” stand apart in the source; their conditions may differ.

How the values were obtained:
Type in all cases: cell-based
[1] = tested on: L. casei cells; assay: survivability of model probiotic L. casei cells loaded with other polyphenols or mixed with catechin during simulated digestion (FIG. 6); conditions: for survivability of probiotic bacteria during simulated gastro-intestinal digestion: L. casei cells infused
Description: To illustrate the role of phenolic bioactives in influencing cell viability, changes in the intracellular pH and interactions of bile salts with cells were measured after simulated gastric and intestinal treatments respectively. Survivability of cells with and without infused plant extracts were evaluated during simulated gastrointestinal treatments under anaerobic conditions. Simulated gastric fluids (SGF, pH=3) were prepared by adding 0.5% w/v sodium chloride, hydrochloric acid to maintain pH and 3.2 mg/ml pepsin. 1 g of selected bacterial cells with and without infused plant extracts were separately incubated in SGF for 2 h at 37° C. and 100 rpm.
After gastric treatment, the cells were pelleted down by centrifuging at 5000 rpm for 2 min and then resuspended in the simulated intestinal fluids (SIF) containing 3.33 mg/mL calcium chloride, 5 g/L sodium chloride, 10 mM bile salts and pancreatin (100 U/ml) in 0.025 M potassium phosphate buffer (pH=7). Digestion mixtures were incubated at 37° C. and 100 rpm for 2 h. After the simulated gastric and intestinal digestions, both the phenolic infused cells and control cells were isolated by centrifuging at 5000 rpm for 2 min and will be washed three times with autoclaved 1×PBS. Viable cells were enumerated after serial dilutions on selective media plates. The viability of cells were measured in triplicates and the results of these measurements were averaged.
Survivability of probiotic cells was not improved if polyphenols were not infused in cells but only added in the same amount to the gastric fluid.

[2] = tested on: L. casei, L. paracasei and L. rhamnosus cells; assay: metabolic activity by resazurin fluorescence assay after simulated gastric fluid; conditions: infused L. casei cells, SGF
Description: For this assay, 6 log CFUs/ml of cells (with and without infused phenolic actives) in selective culture media was prepared. 1 mL of each of the samples were added to a flat bottom 24 well culture plates and 50 μM of resazurin was added to each well plates. Plates were sealed with PCR sealing films inside anerobic cabinet to maintain in-situ anaerobic conditions and were immediately incubated at 37° C. for 16 h. Fluorescence data was collected each 5 min at 580 nm (λex=530 nm). The reduction of resazurin was evaluated by the assay. After cells were treated with simulated gastric fluid, 1 mL of each samples was centrifugated (16,000×g for 2 min) and resuspended in 1 mL of MRS broth containing 50 μM of resazurin. Then, plate was incubated at 37° C. for 16 h and read each 5 min (530 nm/580 nm). […] The reduction of resazurin to resorufin (fluorescent form) was measured to correlate with the metabolic activity of three types of probiotic cells with different infused polyphenols and conditions, as shown in FIG. 7 through FIG. 20. The production of resorufin increases the intensity of fluorescence, while the reduction of the peak is related with the production of hydroresorufin.

[3] = tested on: L. paracasei (LP), Lactobacillus casei (LC) and L. rhamnosus (LR) probiotic cells; assay: survivability during simulated gastrointestinal treatments (SGF 2 h, then SIF 2 h); conditions: for Stability of probiotics against gastric pH and bile salt tolerance: infusion in cells
Description: To illustrate the role of phenolic bioactives in influencing cell viability, changes in the intracellular pH and interactions of bile salts with cells were measured after simulated gastric and intestinal treatments respectively. Survivability of cells with and without infused plant extracts were evaluated during simulated gastrointestinal treatments under anaerobic conditions. Simulated gastric fluids (SGF, pH=3) were prepared by adding 0.5% w/v sodium chloride, hydrochloric acid to maintain pH and 3.2 mg/ml pepsin. 1 g of selected bacterial cells with and without infused plant extracts were separately incubated in SGF for 2 h at 37° C. and 100 rpm. After gastric treatment, the cells were pelleted down by centrifuging at 5000 rpm for 2 min and then resuspended in the simulated intestinal fluids (SIF) containing 3.33 mg/mL calcium chloride, 5 g/L sodium chloride, 10 mM bile salts and pancreatin (100 U/ml) in 0.025 M potassium phosphate buffer (pH=7). Digestion mixtures were incubated at 37° C. and 100 rpm for 2 h. After the simulated gastric and intestinal digestions, both the phenolic infused cells and control cells were isolated by centrifuging at 5000 rpm for 2 min and will be washed three times with autoclaved 1×PBS. Viable cells were enumerated after serial dilutions on selective media plates. The viability of cells were measured in triplicates and the results of these measurements were averaged. Live probiotic cells must reach the colon alive for colonization and related health benefits. These figures plot survivability of L. paracasei (LP), Lactobacillus casei (LC) and L. rhamnosus (LR) probiotic cells with and without infused plant extracts during simulated gastrointestinal treatments with simulated gastric fluid (SGF) for 2 h, followed by the treatment with simulated intestinal fluid (SIF) for next 2 h.

Row | Molecule | survivability of probiotic bacteria during simulated gastro-intestinal digestion [1] | metabolic activity after simulated gastric treatment [2] | Stability of probiotics against gastric pH and bile salt tolerance [3] | survivability of probiotic bacteria during simulated digestion ([1]; simply mixed with cells or added to gastric fluid, not infused) | survivability / stability during simulated gastro-intestinal digestion ([3]; infused cells, SGF then SIF)
1 | COc1cc(/C=C/C(=O)CC(=O)/C=C/c2ccc(O)c(OC)c2)ccc1O [curcumin] | Enhanced stability; also recorded: significantly enhance survivability | further suppressed | enhanced |  | 
2 | O=c1c(O)c(-c2ccc(O)c(O)c2)oc2cc(O)ccc12 [fisetin] | Enhanced stability; also recorded: significantly enhance survivability |  | enhanced |  | 
3 | catechin |  |  | enhanced | no significant improvement in survivability | stable; also recorded: maintained their population
